Read-outs that look alike come from different tables or passages of the source.
Tests used:
[1] = system: “CD151-low” cell subpopulation obtained under conditions for differentiation into atrial myocytes; experiment: Membrane potential analysis (FluoVolt dye) of response to atrial myocyte-specific channel inhibitor or activator, CD151-low cells; assay type: cell-based, human; details: 3 Hz pacing
Method: (§1) The “CD151-high” cell subpopulation was obtained under conditions for differentiation into ventricular myocytes and the “CD151-low” cell subpopulation was obtained under conditions for differentiation into atrial myocytes in Test Example 2. Then, their response to an atrial […] channel inhibitor 4-aminopyridine or activator carbachol was analyzed.
(§2) Each cell subpopulation was seeded at 5×10^4 cells/5 μL and cultured on a glass-bottom dish coated with fibronectin. StemPro-34 SFM containing 1% L-glutamine, 150 μg/mL transferrin, 50 μg/mL ascorbic acid, 4×10^−4 M monothioglycerol, and 5 ng/ml VEGF was used. The culture medium was changed every 3 days, and the cells were cultured at 37° C. under regular oxygen conditions. The cells at culture days 6 to 10 were subjected to membrane potential analysis.
(§3) First, the culture medium was removed. Next, 0.2 μL of membrane potential sensitive dye (FluoVolt, ThermoFisher scientific, F10488) was added per 200 μL of Gey's balanced salt solution (Sigma). […] Each “CD151-high”-induced cell was analyzed under 1 Hz pacing, and each “CD151-low”-induced cell was analyzed under 3 Hz pacing.
(§4) An AquaCosmos2.6 (Hamamatsu Photonics K. K.) was used for the analysis. While each cell was irradiated with excitation light at 490 nm every 5.9 ms for 20 s, the fluorescence response was measured. […]

ventricular myocyte = details: cited from earlier work
[2] = system: “CD151-high” cell subpopulation obtained under conditions for differentiation into ventricular myocytes; experiment: Membrane potential analysis (FluoVolt dye) of response to atrial myocyte-specific channel inhibitor or activator, CD151-high cells; assay type: cell-based, human; details: 1 Hz pacing
Method: as §1, §2, §3, §4

atrial myocyte = details: cited from earlier work
[3] = 4-aminopyridine 50 μM final, 10 min after addition, FIG. 5(A)
[4] = carbachol 10 μM final, 1 min after addition, FIG. 5(B)

Compound	effect on action potential duration (APD) [1, 3]	effect on APD (ventricular myocyte; 4-aminopyridine added to a cell)	effect on action potential duration (APD) [2, 3]	effect on APD20 (atrial myocyte; 4-aminopyridine added to a cell, blocker of ultra-rapidly activating delayed rectifier potassium channel (IKur))	effect on action potential duration (APD) [1, 4]	effect on APD (ventricular myocyte; carbachol added to a cell)	effect on action potential duration (APD) [2, 4]	effect on action potential duration (APD) (atrial myocyte; carbachol added to a cell, activator of muscarinic potassium channel (IK,Ach))
Nc1ccncc1 [4-aminopyridine]	prolong the action potential duration (APD)	not affected	little APD extension	prolonged only in the atrial myocyte				
C[N+](C)(C)CCOC(N)=O [carbachol]					shorten the APD	not affected	no APD change	shortened only in the atrial myocyte
